Holding throughout (assay): growth of human tumour cells (NCI), 48 h
In assay [1] the test system is A498.
Assay [2] deals with A549.
Assay [3] deals with COLO 205.
The test system of assay [4] is HCC 2998.
Assay [5] deals with HOP-62.
Assay [6] has as its system MOLT-4.
Assay [7] deals with NCI-H23.
Assay [8] relates to NCI-H460.
Assay [9] has as its system RPMI-8226.
For assay [10], the system named is RXF 393.
Assay [11] concerns SK-MEL-28.
The subject of assay [12] is SK-MEL-5.
Assay [13] concerns SK-OV-3.
The subject of assay [14] is SN12C.
Assay [15] concerns SNB-75.
In assay [16] the test system is SW-620.
For assay [17], the system named is UACC-62.

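48-hour exposure; five concentrations; linearly interpolated endpoints. GI50: concentration for 50% inhibition of growth.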 Activity calls are given as the source filed them. No stated cut-off is given here; in the data, active = GI50 up to about 1.1 µM and inactive = higher. Where only a bound is given, the exact number is not on record here.

For the compound `Cc1ccc(/N=N/c2c(-c3ccccc3)nn(C(=O)CC(=O)Nc3ccc(Cl)cc3)c2-c2ccccc2)cc1`, the GI50 in assay [1] was 31.8 µM (inactive); in assay [2] it was 78.9 µM (inactive); in assay [3] it was 59.3 µM (inactive); in [4], 56.1 µM (inactive); in assay [5], 33.8 µM (inactive); in [6], 21.3 µM (inactive). For the same compound, the GI50 was 44.2 µM (inactive) in assay [7]; > 100 µM (inactive) in assay [8]; 18.8 µM (inactive) in [9]; 28.4 µM (inactive) in assay [10]; > 100 µM (inactive) in assay [11]; 90.8 µM (inactive) in assay [12]. For the same compound, the GI50 in assay [13] was > 100 µM (inactive); in assay [14], > 100 µM (inactive); in assay [15], 20.6 µM (inactive); in assay [16], 90.8 µM (inactive); in [17], 70.5 µM (inactive).

For `CC1c2[nH]c3ccccc3c2CCN1O` (centres undefined), the GI50 in assay [1], in assay [2], in assay [3], in assay [4], in [6] and in assay [7] was > 100 µM (inactive) in each case. In addition, the GI50 in assay [9], in assay [10], in assay [11], in assay [12], in assay [13] and in assay [14] was > 100 µM (inactive) throughout. Besides, the GI50 is 68.5 µM (inactive) in [15], > 100 µM (inactive) in assay [16] and > 100 µM (inactive) in [17].

As to `CN(C)c1n/c(=N/c2ccc3c(c2)OCO3)ss1`, the GI50 in [1] was 43.9 µM (inactive); in assay [2], 44.6 µM (inactive); in [4] it was 44.4 µM (inactive); in assay [5] it was > 100 µM (inactive); in assay [6], 22.4 µM (inactive); in assay [7], 66.4 µM (inactive). In addition, the GI50 in [8] is 47.4 µM (inactive); in [9], 19.3 µM (inactive); in assay [10], 96.4 µM (inactive); in assay [11] it was > 100 µM (inactive); in assay [12], 55.3 µM (inactive); in assay [13] it was > 100 µM (inactive). Further, the GI50 in assay [14] is 73.6 µM (inactive); in assay [15], 9.71 µM (inactive); in [16], 74 µM (inactive); in assay [17] it was 58.3 µM (inactive).

For the compound `COC(=O)[C@H](C)[C@H]1CC[C@@](C)([C@H]2CC3C(C)(C)[C@H]4CCC(C)=C[C@H]4C[C@@]3(C)O2)OO1` (some centres undefined), the GI50 is 8.71 µM (inactive) in assay [1]; 8.24 µM (inactive) in assay [2]; 9.66 µM (inactive) in assay [3]; 6.68 µM (inactive) in assay [4]; 19.3 µM (inactive) in assay [5]; 7.13 µM (inactive) in assay [6]. Further, the GI50 in assay [7] was 7.6 µM (inactive); in assay [8], 2.05 µM (inactive); in assay [9], 2.92 µM (inactive); in assay [10], > 10 µM (inactive); in assay [11], 14.6 µM (inactive); in assay [12] it was 4.72 µM (inactive). Further, the GI50 in assay [13] is 30.5 µM (inactive); in assay [14] it was 11.1 µM (inactive); in assay [15], 6.14 µM (inactive); in [16], 8.83 µM (inactive); in assay [17], 13.6 µM (inactive).

As to `NC(=O)C12CCC1C1CCCCC12N1CCOCC1` (centres undefined), the GI50 in assay [1], in assay [2], in [4], in assay [5], in assay [6] and in assay [7] was > 100 µM (inactive) in each case. In addition, the GI50 in [8], in assay [9], in assay [10], in assay [11], in assay [12] and in assay [13] was > 100 µM (inactive) throughout. Also, the GI50 in assay [14], in assay [15], in [16] and in assay [17] was > 100 µM (inactive) in each case.

In the case of `Cc1cn2c(=O)c3ncn(C4OC(CO)C(O)C4O)c3n(C)c2n1` (centres undefined), the GI50 in assay [1], in assay [2], in assay [3], in assay [4], in assay [6] and in assay [7] was > 100 µM (inactive) in each case. Further, the GI50 in assay [8], in assay [9], in assay [10], in assay [11], in assay [12] and in assay [13] was > 100 µM (inactive) throughout. Moreover, the GI50 in assay [14], in assay [15], in assay [16] and in [17] was > 100 µM (inactive) throughout.

As for `O=C1c2ccccc2C(=O)c2sc(Nc3cccc(Cl)c3)nc21`, the GI50 was 2.07 µM (inactive) in assay [1]; 2.21 µM (inactive) in assay [2]; 5.38 µM (inactive) in assay [3]; 2.75 µM (inactive) in assay [4]; 1.82 µM (inactive) in [5]; 0.492 µM (active) in [6]. Moreover, the GI50 in assay [7] is 1.49 µM (inactive); in assay [8] it was 2.07 µM (inactive); in [9] it was 0.966 µM (active); in [10], 1.45 µM (inactive); in [11], 1.81 µM (inactive); in assay [12], 1.56 µM (inactive). Further, the GI50 was 8.11 µM (inactive) in assay [13]; 1.51 µM (inactive) in [14]; 1.82 µM (inactive) in [15]; 0.802 µM (active) in assay [16]; 1.73 µM (inactive) in assay [17].

On to `O/N=C1/C(=C/c2ccc3c(c2)OCO3)CCCC1C(NO)c1ccc2c(c1)OCO2` (centres undefined), for which the GI50 in assay [1] was 26.5 µM (inactive); in [2], 29.9 µM (inactive); in assay [3], 25.4 µM (inactive); in [4], 25 µM (inactive); in [5], 21.1 µM (inactive); in assay [6], 16.9 µM (inactive). The GI50 in [7] is 30.4 µM (inactive); in assay [8], 29.4 µM (inactive); in assay [9] it was 18.8 µM (inactive); in assay [10], 23.6 µM (inactive); in [11], 21.7 µM (inactive); in assay [12], 17.4 µM (inactive). The GI50 in [13] is 48.2 µM (inactive); in [14], 21.3 µM (inactive); in assay [15], 27.2 µM (inactive); in assay [16] it was 30.8 µM (inactive); in assay [17], 19 µM (inactive).

Consider `CC(=O)C(CN(C)Cc1ccccc1)C(c1ccccc1)c1c(O)c2ccccc2oc1=O` (centres undefined), for which the GI50 in assay [1], in assay [2], in [3], in assay [4], in [5] and in assay [6] was > 100 µM (inactive) throughout. Besides, the GI50 in [7] is > 100 µM (inactive); in assay [8] it was > 100 µM (inactive); in assay [9] it was 58.6 µM (inactive); in assay [10], > 100 µM (inactive); in [11], > 100 µM (inactive); in assay [12] it was > 100 µM (inactive). Moreover, the GI50 in assay [13], in assay [14], in [15], in assay [16] and in assay [17] was > 100 µM (inactive) in each case.

Take `CCN(CC)[C@@H]1c2cc3c(cc2C(c2cc(OC)c(O)c(OC)c2)C2C(=O)CO[C@@H]21)OCO3` (some centres undefined): the GI50 in assay [1], in [2], in [3], in assay [4], in [5] and in assay [6] was > 100 µM (inactive) in each case. The GI50 in assay [7] was > 100 µM (inactive); in assay [8], > 100 µM (inactive); in assay [9], > 100 µM (inactive); in [10] it was 65.5 µM (inactive); in assay [11], > 100 µM (inactive); in [12], > 100 µM (inactive). Also, the GI50 in assay [13], in assay [14], in assay [15], in [16] and in [17] was > 100 µM (inactive) each time.

In the case of `CC(=O)OC1CC2C(C)(C)OC(=O)CC(OC(C)=O)[C@]2(C)C2CCC3(C)C(=CCC3[C@H]3COC(=O)C3)[C@]12C` (some centres undefined), the GI50 in [1] was 96.4 µM (inactive); in assay [2] it was 55.6 µM (inactive); in assay [3] it was > 100 µM (inactive); in assay [4], > 100 µM (inactive); in assay [5], > 100 µM (inactive); in [6] it was 24.5 µM (inactive). The GI50 in assay [7] is > 100 µM (inactive); in assay [8], > 100 µM (inactive); in [9] it was 47.1 µM (inactive); in [10], > 100 µM (inactive); in [11], 42.6 µM (inactive); in assay [12] it was > 100 µM (inactive). Further, the GI50 in assay [13] is > 100 µM (inactive); in [14], > 100 µM (inactive); in [15], 46.6 µM (inactive); in assay [16], > 100 µM (inactive); in assay [17], 97.7 µM (inactive).

Consider `C=C1CC[C@@H]2C(C)(C)CCC[C@@]2(C)[C@@H]1Cc1cc(O)ccc1O`, for which the GI50 in assay [1] is 13.7 µM (inactive); in [2], 5.36 µM (inactive); in [3] it was 15.9 µM (inactive); in assay [4], 13.8 µM (inactive); in assay [5] it was 9.59 µM (inactive); in assay [6], 0.912 µM (active). Also, the GI50 in assay [7] was 5.97 µM (inactive); in assay [8], 14 µM (inactive); in [9], 3.14 µM (inactive); in assay [10], 1.67 µM (inactive); in [11], 2.56 µM (inactive); in [12], 7.06 µM (inactive). Also, the GI50 in assay [13] is 2.3 µM (inactive); in assay [14], 4.27 µM (inactive); in assay [15], 1.95 µM (inactive); in assay [16], 8.43 µM (inactive); in [17], 10.4 µM (inactive).

(Values after ChEMBL document CHEMBL1201862, “PubChem BioAssay data set” (2004).)
